The nature of experiment [1]: Release test: measurement of leakage. As to the method: The term “Membrane disruptive function” denotes the function to bring about release in the release test. The release test described in this specification is a test comprising or consisting of adding liposomes (dispersion) encapsulating an aqueous solution containing a quenching substance and a fluorescent substance and a dispersion of a sample for evaluation to a properly pH-adjusted aqueous solution, incubating the resulting aqueous solution at 37° C. for 90 minutes or 30 minutes, and measuring the fluorescence intensity of the incubated aqueous solution. This method permits the measurement of the amount of the fluorescent substance which has been released from the liposomes. […] The release test will be described in more detail in the Examples.
The evaluation was performed with the help of EYPC liposomes which contain Pyranine (as a fluorescent substance) and DPX (as a quencher).
EYPC (3000 nmol) dissolved in chloroform was measured and placed in a 10-mL eggplant-shaped flask, and the EYPC was made into thin film with a rotary evaporator. To the flask was added a Pyranine solution (500 μL), which is composed of Pyranine (35 mM), DPX (50 mM), and MES (25 mM), and has pH 7.4. The thin film in the flask was dispersed with the help of an ultrasonic irradiator (USC-J). The resulting dispersion was passed through a porous polycarbonate film having a pore diameter of 100 nm with the help of an extruder, so as to make the particle size uniform. The resulting dispersion underwent substitution of the outer aqueous layer with the help of MES Buffer and G100 column. Thus, there was obtained a dispersion of EYPC liposomes encapsulating the fluorescent substance. The concentration of the lipid was determined with the help of phospholipid C-test Wako, and then it was adjusted with MES Buffer so that phospholipid became 1.0 mmol/L.
The dispersion of EYPC liposomes (with its concentration adjusted) in an amount of 20 μL and the dispersion of a sample for evaluation in an amount of 20 μL were added to MES Buffer (with its pH adjusted) in an amount of 2960 μL. The resulting mixture underwent incubation at 37° C. for 90 or 30 minutes. Values resulting from incubation for 90 minutes are adopted in the Examples, unless otherwise indicated.
The leakage was calculated assuming that the sheer dispersion of EYPC liposomes has 0% and the dispersion of EYPC liposomes incorporated with 30 μL of 10-fold diluted Triton-X100 has 100%. Specifically, the leakage was calculated from the following formula, L denotes the intensity of fluorescence measured, L0 denotes the intensity of fluorescence of the sheer dispersion of EYPC liposomes containing the fluorescent substance, and L100 denotes the intensity of fluorescence of the dispersion of EYPC liposomes incorporated with Triton-X100.

For a further experiment, the system named is CD80. In words: Evaluation of stimulus to activate innate immune system: expression of CD80 in cultured mice spleen cells (flow cytometry). Conditions: for CD80 MFI, Amphipathic substance: amphipathic substance alone; for fluorescence intensity of CD80PE compared with PBS: solution (5 μL) of sample added alone: peptide, OVA 800 μg/mL, DLPC 1000 nmol/mL, deoxycholic acid 1600 nmol/mL, FIG. 8(B).

Experiment [2] deals with CTL (IFNγ-secreting cells/total CD8 positive cells). Kind of experiment: Evaluation of CTL induction rate, ICS method, after immunization of mice. The experiment is classed as in vivo, C57BL/6N mice. Conditions: for CTL induction rate, High MPL: high MPL (22.7); for CTL induction rate, High MPL / CTL induction rate, Low MPL: n=3; for CTL induction rate, Low MPL: low MPL (0.0227). Further details: key to CTL induction rate, Low MPL / CTL induction rate, High MPL: ratio of IFNγ-secreting cells to total CD8 positive cells. As to the method: Administration (100 μL/head) was performed by subcutaneous injection at one position on the back under anesthesia. […] For evaluation of cell-mediated immunity, administration was performed once and the assay was performed seven days after administration. For evaluation of humoral immunity, administration was performed twice. The second administration was performed 14 days after the first administration, and assay was performed seven days after the second administration.
The mice were sacrificed on the seventh day after the last administration and had its spleen harvested. The spleen was given RPMI medium (3.0 mL) containing 10% serum and then treated by the BD Falcon cell strainer. Thus there was obtained a suspension of cells. […] The cells were dispersed into RPMI medium containing 10% serum. The number of cells was counted. Thus there was obtained a dispersion of spleen cells.
For restimulation of the antigen, 10% serum-containing RPMI medium (100 μL) containing OVA peptide (40 μg/mL) was added, followed by incubation for three hours. Then, BD GolgiPlug was added such that its concentration was 0.2 μL/100 μL. Cell culture was performed overnight. In the case where the restimulation was not given, a 10% serum-containing RPMI medium not containing OVA peptide was used.
After washing, the cells were stained with Anti-CD8aPE (at 4° C. for 30 minutes), followed by washing again. Then the cells were permeabilized with Cytofix/Cytoperm. After washing, the cells were stained with Anti-IFNγFITC (at 4° C. for 30 minutes). […] CTL induction rate was calculated in terms of the ratio between the IFNγ secreting cells and the total CD8 positive cells.
It is known that MPL activates innate immune system and functions as an adjuvant even when used alone. It is also known that MPL induces cell-mediated immunity. Thus, a comparison was made as to the induction of cell-mediated immunity between MPL used alone and MPL used in combination with a pH-sensitive carrier in the form of the adjuvant composition. Each of the MPL and the adjuvant composition is administered together with an antigen. […] The above-mentioned solution or dispersion was subcutaneously administered once to the back of C57BL/6N mice, and the CTL induction rate was obtained according to the ICS method. The CTL induction rate is expressed in terms of the ratio of the IFNγ-secreting cells to the total CD8 positive cells in a specific area which is hardly affected by dead cells (IFNγ-secreting cells/total CD8 positive cells).

Where [3] appears, read: Table 2, pH-sensitive substance alone.
Setting [4] is: antigen peptide 3.2 μg, DLPC, deoxycholic acid (160 nmol), subcutaneous once.
Where [5] appears, read: antigen peptide 16 μg, DLPC, deoxycholic acid (160 nmol), subcutaneous once.
[6] abbreviates: antigen peptide 80 μg, DLPC, deoxycholic acid (160 nmol), subcutaneous once.
[7] abbreviates: antigen peptide 400 μg, DLPC, deoxycholic acid (160 nmol), subcutaneous once.

Description for CD80: The evaluation of stimulus to activate innate immune system was performed as follows.
A spleen was harvested from C57BL/6N mice. The harvested spleen was injected with 500 μL of collagenase solution, 2 mg/mL (prepared with RPMI medium) followed by incubation at 37° C. for 30 minutes. The spleen was made into cell suspension by treatment with BD Falcon cell strainer. The cells underwent hemolysis with RBC lysis buffer, followed by washing with RPMI medium. The cells were dispersed into RPMI medium, and the number of cells was counted. The cells were used for the subsequent procedure.
The cells were inoculated into a 96-well dish such that 1.0×10^6 cells/100 μL. The cell dispersion was given 100 μL of RPMI medium containing a dispersion of different kind, followed by incubation overnight. These procedures were performed by using serum-free RPMI medium.
The cells were recovered and washed with BD stain buffer. Then, the cells underwent incubation together with Anti-CD11cFITC, 0.25 μg/100 μL (4° C. for 30 minutes), so that the cells were stained. After washing, the cells underwent again incubation with Anti-CD80PE, Anti-CD86PE, or Anti-CD40PE, 0.25 μg/100 μL (4° C. for 30 minutes), so that the cells were stained. After washing at least more than three times, the cells were evaluated by using the flow cytometer (Cytomics FC500, Software: CXP software ver. 2).

For the molecule `C[C@H](CCC(=O)O)[C@H]1CC[C@H]2[C@@H]3C[C@H](O)[C@@H]4C[C@H](O)CC[C@]4(C)[C@H]3CC[C@]12C` [Hyodeoxycholic acid], in experiment [1] (setting [3]), the “leakage, Alone, pH 5.0” value stood at 12.6 ± 0.4% and the “leakage, Alone, pH 7.4” value is on record as 4.2 ± 0.9%.

As for sorbitan oleic acid ester [Span 80], the “CD80 MFI, Amphipathic substance” value with CD80 is 39.6 ± 1.8%. In experiment [1] (Table 1, substance alone), the “leakage, Alone, pH 5.0” value is 18.1 ± 1.0% and the “leakage, Alone, pH 7.4” value amounted to 6.1 ± 0.6%.

In the case of `CC(CCC(=O)NCC(=O)O)C1CCC2C3CCC4CC(O)CCC4(C)C3CC(O)C12C` (stereo not shown) [Glycodeoxycholic acid], in experiment [1] (setting [3]), the “leakage, Alone, pH 5.0” value came out at 9.8 ± 0.8% and the “leakage, Alone, pH 7.4” value is 1.9 ± 1.2%.

`CCCCCCCCCC(=O)OC[C@H](COP(=O)([O-])OCC[N+](C)(C)C)OC(=O)CCCCCCCCC` [DDPC, 1,2-didecanoyl-sn-glycero-3-phosphatidylcholine]: the “CD80 MFI, Amphipathic substance” value with CD80 is reported as 36.5 ± 1.1%. Moreover, in experiment [1] (Table 1, substance alone), the “leakage, Alone, pH 5.0” value worked out at 37.1 ± 1.3% and the “leakage, Alone, pH 7.4” value is 17.4 ± 0.1%.

For the molecule `Cc1c(C)c2c(c(C)c1O)CCC(C)(CCCC(C)CCCC(C)CCCC(C)C)O2` (racemic) [α-tocopherol, DL-α-tocopherol], the “CD80 MFI, Amphipathic substance” value in the experiment on CD80 amounted to 43.8 ± 4.9%. In experiment [1] (Table 1, substance alone), the “leakage, Alone, pH 5.0” value was 10.6 ± 1.3% and the “leakage, Alone, pH 7.4” value stood at 5.5 ± 0.3%.

Turning to `CC1(C)[C@@H](O[C@H]2O[C@H](C(=O)O)[C@@H](O)[C@H](O)[C@H]2O[C@@H]2O[C@H](C(=O)O)[C@@H](O)[C@H](O)[C@H]2O)CC[C@]2(C)[C@H]3C(=O)C=C4[C@@H]5C[C@@](C)(C(=O)O)CC[C@]5(C)CC[C@@]4(C)[C@]3(C)CC[C@@H]12` [Glycyrrhizinic acid], in experiment [1] (setting [3]), the “leakage, Alone, pH 5.0” value worked out at 16.7 ± 2.9% and the “leakage, Alone, pH 7.4” value amounted to 4.2 ± 1.2%.

As for `CCCCCCCCCCCC(=O)OCCOCCOCCOCCOCCOCCOCCOCCOCCOCCOCCOCCOCCOCCOCCOCCOCCOCCOCCOCCOCC(OCCOCCOCCOCCOCCOCCOCCOCCOCCOCCOCCOCCOCCOCCOCCOCCOCCOCCOCCOCCO)C1OCC(OCCOCCOCCOCCOCCOCCOCCOCCOCCOCCOCCOCCOCCOCCOCCOCCOCCOCCOCCOCCO)C1OCCOCCOCCOCCOCCOCCOCCOCCOCCOCCOCCOCCOCCOCCOCCOCCOCCOCCOCCOCCO` (stereo not shown) [Tween 20, polyoxyethylene sorbitan monolaurate ester], in the experiment with CD80, the “CD80 MFI, Amphipathic substance” value stood at 38.0 ± 3.2%. In experiment [1] (Table 1, substance alone), the “leakage, Alone, pH 5.0” value was determined as 74.0 ± 2.0% and the “leakage, Alone, pH 7.4” value is recorded as 70.4 ± 3.9%.

In the case of Monophosphoryl lipid A [MPL alone], the “CTL induction rate (%), Adjuvant composition (with antigen not restimulated)” value in experiment [2] (DLPC with pH-sensitive compound 160 nmol, MPL content 0.227, OVA (80 μg), dispersion, n=1, antigen not restimulated) is recorded as 0.14%. Moreover, the “CTL induction rate (%), Adjuvant composition” value in experiment [2] (DLPC with pH-sensitive compound 160 nmol, MPL content 0.227, OVA (80 μg), dispersion, n=1, antigen restimulated) was 0.25%. The “CTL induction rate by adjuvant composition (%), Antigen: OVA” value in experiment [2] (antigen OVA (80 μg), DLPC, MPL content 0.227, deoxycholic acid amount (nmol) varied, dispersion, n=1) stood at 0.18%. Moreover, in experiment [2] (antigen peptide (80 μg), DLPC, MPL content 0.227, deoxycholic acid amount (nmol) varied, dispersion, n=1), the “CTL induction rate by adjuvant composition (%), Antigen: peptide” value turned out to be 0.22%. For the same molecule, the CTL induction rate in experiment [2] (antigen peptide (80 μg), MPL content 0.227 or equivalent, DLPC, deoxycholic acid (160 nmol), subcutaneous once, FIGS. 3 and 4) was 0.27%. Further, the “CTL induction rate, High MPL” value in experiment [2] (setting [4]) turned out to be 0.45; in experiment [2] (setting [5]) it was 0.36; in experiment [2] (setting [6]), 0.37; in experiment [2] (setting [7]), 0.58. For the same molecule, the “CTL induction rate, Low MPL” value in experiment [2] (setting [4]) amounted to 0.14; in experiment [2] (setting [5]) it was 0.31; in experiment [2] (setting [6]), 0.26; in experiment [2] (setting [7]), 0.46. Further, the “CTL induction rate (%), Amphipathic substance-MPL” value in experiment [2] (mixed thin film of amphipathic substance (100 nmol) and MPL (0.227) dispersed in antigen solution, OVA (80 μg), n=1) stood at 0.20%. For the same molecule, the “leakage at a low pH value compared with PBS alone” value in experiment [1] (MPL (dispersed in PBS or DMSO) in an amount equivalent to MPL content 0.227, FIG. 9(A)) was “equivalent to that in the case where PBS was used alone”.

As to `CCCCCCCCCCCC(=O)OC[C@H](COP(=O)([O-])OCC[N+](C)(C)C)OC(=O)CCCCCCCCCCC` [DLPC, 1,2-dilauroyl-sn-glycero-3-phosphatidylcholine], in the experiment on CD80, the “CD80 MFI, Amphipathic substance” value turned out to be 38.5 ± 2.9% and the “fluorescence intensity of CD80PE compared with PBS” value is “remained unchanged from that in the case where PBS was added”. In experiment [1] (Table 1, substance alone), the “leakage, Alone, pH 5.0” value came to 5.5 ± 0.9% and the “leakage, Alone, pH 7.4” value is on record as 1.8 ± 1.2%.

As to `C[C@H](CCC(=O)O)[C@H]1CC[C@H]2[C@@H]3[C@H](O)C[C@@H]4C[C@H](O)CC[C@]4(C)[C@H]3CC[C@]12C` [Chenodeoxycholic acid], in experiment [1] (setting [3]), the “leakage, Alone, pH 5.0” value is on record as 14.1 ± 0.9% and the “leakage, Alone, pH 7.4” value amounted to 0.7 ± 0.5%.

B1: OVA: OVA protein (EndoFit Ovalbumin: from InvivoGen), model antigen (protein, UniProt P01012 2-386, looked up)
Ovalbumin: GSIGAASMEFCFDVFKELKVHHANENIFYCPIAIMSALAMVYLGAKDSTRTQINKVVRFDKLPGFGDSIEAQCGTSVNVHSSLRDILNQITKPNDVYSFSLASRLYAEERYPILPEYLQCVKELYRGGLEPINFQTAADQARELINSWVESQTNGIIRNVLQPSSVDSQTAMVLVNAIVFKGLWEKAFKDEDTQAMPFRVTEQESKPVQMMYQIGLFRVASMASEKMKILELPFASGTMSMLVLLPDEVSGLEQLESIINFEKLTEWTSSNVMEERKIKVYLPRMKMEEKYNLTSVLMAMGITDVFSSSANLSGISSAESLKISQAVHAAHAEINEAGREVVGSAEAGVDAASVSEEFRADHPFLFCIKHIATNAVLFFGRCVSP
In the case of B1, the “fluorescence intensity of CD80PE compared with PBS” value in the experiment with CD80 is given as “remained unchanged from that in the case where PBS was added”.

The values are drawn from patent US11000586B2, “Adjuvant composition, vaccine composition containing the same, and method for producing both of them” (TERUMO KABUSHIKI KAISHA, priority 2013, dated 2021).
